Format in all cases: in vivo, C57BL/6 mice
Series [1] relates to chicken Ovalbumin (pOVA). As to the kind of experiment: Anti-OVA IgG titers, MTX given with pOVA+CpG s.c. (Example 18). The settings on record: MTX i.p. days 1-3, 7-9, 14-16; 25 μg pOVA + 2 μg CpG s.c. weekly, 5 injections; FIG. 3. The protocol:
(§1) In order to test whether multiple injections of MTX can lead to the establishment of immunological tolerance, C57BL/6 age-matched (5-6 weeks) female mice were injected intravenously in the tail vein with weekly injections of 200 μg of keyhole limpet hemocyanin (KLH) and subcutaneously in the hind limbs with 25 μg of a particulate form of chicken Ovalbumin (pOVA) admixed to 2 μg of CpG oligodeoxynucleotides (ODN). With the first three antigen injections, a group of animals received 3 intraperitoneal injections of MTX on the same day and the following 2 days. All animals received 5 injections of antigen (d0, 7, 14, 21 and 28) and one group received 9 additional injections of MTX i.p. (days 1-3, 7-9, 14-16).
(§2) The anti-KLH and anti-OVA responses were monitored in the blood in these animals at different time points.

Series [2] concerns chicken Ovalbumin (pOVA). As to the kind of experiment: Anti-OVA antibody response, MTX given with pOVA (Example 17). The settings on record: 200 μg MTX i.p. days 1-3, 7-9, 14-16; 5 weekly i.v. injections of 25 μg pOVA; FIG. 2. As for the experimental part:
(§3) C57BL/6 age-matched (5-6 weeks) female mice were injected 5 times intravenously in the tail vein with weekly injections of 25 μg of an immunogenic, particulate form of chicken Ovalbumin (pOVA). One group of animals received 3 intraperitoneal injections of 200 μg of MTX along with the 3 first antigen injections the same day and the 2 following days. The untreated group received only antigen whereas the treated group received 9 injections total of MTX i.p. (days 1-3, 7-9, 14-16). On the 4th and 5th injection days all animals received 20 μg of keyhole limpet hemocyanine (KLH) subcutaneously in the hind limbs admixed to 2 μg of CpG in addition to the i.v. injection of pOVA.
(§4) The anti-KLH and anti-OVA antibody responses were monitored in the blood in these animals at different time points.

For series [3], the system named is keyhole limpet hemocyanine (KLH). The series is described as follows: Anti-KLH antibody response, KLH+CpG given after MTX treatment (Example 17). The settings on record: 20 μg KLH + 2 μg CpG s.c. injected after the MTX treatments (from d21); FIG. 2. The protocol: as §3, §4
The subject of series [4] is keyhole limpet hemocyanin (KLH). As to the kind of experiment: Anti-KLH IgG titers, MTX given with KLH i.v. (Example 18). Conditions: MTX i.p. days 1-3, 7-9, 14-16; 200 μg KLH i.v. weekly, 5 injections; FIG. 3. The protocol: as §1, §2

For the compound `CN(Cc1cnc2nc(N)nc(N)c2n1)c1ccc(C(=O)N[C@@H](CCC(=O)O)C(=O)O)cc1` [MTX, Methotrexate], the “anti-OVA IgG antibody titers” value in series [1] was “blocked both responses and the animals showed low titers”. Moreover, the anti-OVA antibody response result in series [2] is “blocked the antibody response and only minimal titers were detected”. In addition, the anti-KLH response entry in series [3] is “robust anti-KLH response could be detected in all groups”. In series [4], the “anti-KLH IgG antibody titers” value is “blocked both responses and the animals showed low titers”.
